target: T1, Human orexin receptor type 2 (Homo sapiens, UniProt O43614); test: Test Example 1: agonist activity for orexin receptor type 2 (aequorin luminescence, intracellular calcium mobilization); conditions: compound 10 μm; CHO cells transiently expressing human orexin receptor type 2 and apoaequorin; relative percentage of luminescence for the luminescence (100%) of Orexin A (100 μM)
T1 sequence (O43614 1-444): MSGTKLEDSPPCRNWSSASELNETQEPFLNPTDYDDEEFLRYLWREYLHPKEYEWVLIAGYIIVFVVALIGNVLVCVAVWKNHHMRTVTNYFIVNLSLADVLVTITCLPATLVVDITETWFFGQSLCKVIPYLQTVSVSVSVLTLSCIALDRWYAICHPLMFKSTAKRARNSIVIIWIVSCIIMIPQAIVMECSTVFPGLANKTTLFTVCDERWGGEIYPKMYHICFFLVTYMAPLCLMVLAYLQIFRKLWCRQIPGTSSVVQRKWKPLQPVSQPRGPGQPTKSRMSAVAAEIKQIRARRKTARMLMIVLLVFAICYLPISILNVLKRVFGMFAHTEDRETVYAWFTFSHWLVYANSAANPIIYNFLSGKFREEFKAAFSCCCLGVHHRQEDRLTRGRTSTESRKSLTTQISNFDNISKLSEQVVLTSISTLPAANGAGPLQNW

With `CCc1nc(C2(C)CCN(C(=O)Nc3c(F)cccc3N3CCN(C(C)C)CC3)CC2)no1` [Example 82, 4-(5-ethyl-1,2,4-oxadiazol-3-yl)-N-{2-fluoro-6-[4-(propan-2-yl)piperazin-1-yl]phenyl}-4-methylpiperidine-1-carboxamide] as the compound, how does the “Agonist Activity (%)” value read?
Its value is 156%.

For `Cc1cccc(C2CCN(C(=O)Nc3c(F)cccc3N3CCN(C(C)C)CC3)CC2)c1` [Example 29, N-{2-fluoro-6-[4-(propan-2-yl)piperazin-1-yl]phenyl}-4-(3-methylphenyl)piperidine-1-carboxamide], which “Agonist Activity (%)” value is on record?
Its value is 77%.

For `CC(C)N1CCN(c2cccc(Cl)c2NC(=O)N2CCC(C)(c3noc(CC(F)(F)F)n3)CC2)CC1` [Example 119, N-{2-chloro-6-[4-(propan-2-yl)piperazin-1-yl]phenyl}-4-methyl-4-[5-(2,2,2-trifluoroethyl)-1,2,4-oxadiazol-3-yl]piperidine-1-carboxamide], which “Agonist Activity (%)” value is on record?
Its value is 154%.

Which “Agonist Activity (%)” value does the source give for `COc1cccc(N2CCN(C(C)C)CC2)c1NC(=O)N1CCC(C)(c2noc(C(F)(F)F)n2)CC1` [Example 25, N-{2-methoxy-6-[4-(propan-2-yl)piperazin-1-yl]phenyl}-4-methyl-4-[5-(trifluoromethyl)-1,2,4-oxadiazol-3-yl]piperidine-1-carboxamide] here?
Its value is 136%.

With `CC(C)N1CCN(c2cccc(Cl)c2NC(=O)N2CCC(C)(c3noc(C(F)(F)F)n3)CC2)CC1` [Example 86, N-{2-chloro-6-[4-(propan-2-yl)piperazin-1-yl]phenyl}-4-methyl-4-[5-(trifluoromethyl)-1,2,4-oxadiazol-3-yl]piperidine-1-carboxamide] as the compound, how does the “Agonist Activity (%)” value read?
The value was 138%.

`Cc1ccc(C23CCN(C(=O)Nc4ccccc4N4CCN(C(C)C)CC4)CC2C3)cc1` (stereo not drawn) [Example 14, 6-(4-methylphenyl)-N-{2-[4-(propan-2-yl)piperazin-1-yl]phenyl}-3-azabicyclo[4.1.0]heptane-3-carboxamide] was tested. Which “Agonist Activity (%)” value did it give?
The value was 126%.

How did the “Agonist Activity (%)” value turn out when `CC(C)N1CCN(c2cccc(F)c2NC(=O)N2CCC(C)(c3noc(C4CCCC4)n3)CC2)CC1` [Example 73, 4-(5-cyclopentyl-1,2,4-oxadiazol-3-yl)-N-{2-fluoro-6-[4-(propan-2-yl)piperazin-1-yl]phenyl}-4-methylpiperidine-1-carboxamide] was run?
The value was 141%.

Which “Agonist Activity (%)” value does the source give for `Cc1ccc(C2CCN(C(=O)Nc3c(Cl)cccc3C3=CCN(C(C)C)CC3)CC2)cc1` [Example 132, N-{2-chloro-6-[1-(propan-2-yl)-1,2,3,6-tetrahydropyridin-4-yl]phenyl}-4-(4-methylphenyl)piperidine-1-carboxamide] here?
The value was 171%.

Which “Agonist Activity (%)” value does the source give for `COCC(C)N1CCN(c2ccccc2NC(=O)N2CCC(c3ccc(C)cc3)CC2)CC1` (stereo not drawn) [Example 126, N-{2-[4-(1-methoxypropan-2-yl)piperazin-1-yl]phenyl}-4-(4-methylphenyl)piperidine-1-carboxamide] here?
Its value is 139%.

`Cc1ccc(C2CCN(C(=O)Nc3ccccc3N3CCN(C4CCOC4)CC3)CC2)cc1` (stereo not drawn) [Example 124, 4-(4-methylphenyl)-N-{2-[4-(oxolan-3-yl)piperazin-1-yl]phenyl}piperidine-1-carboxamide] was tested. Which “Agonist Activity (%)” value did it give?
The value was 27%.

How did the “Agonist Activity (%)” value turn out when `CCN1CCN(c2ccccc2NC(=O)N2CCC(c3ccc(OC)cc3)CC2)CC1` [Example 1, N-[2-(4-Ethylpiperazin-1-yl)phenyl]-4-(4-methoxyphenyl)piperidine-1-carboxamide] was run?
Its value is 77%.

`CC(C)c1nc(C2(C)CCN(C(=O)Nc3c(F)cccc3N3CCN(C(C)C)CC3)CC2)no1` [Example 20, N-{2-fluoro-6-[4-(propan-2-yl)piperazin-1-yl]phenyl}-4-methyl-4-[5-(propan-2-yl)-1,2,4-oxadiazol-3-yl]piperidine-1-carboxamide] was tested. Which “Agonist Activity (%)” value did it give?
The value was 111%.

`CC(C)N1CCN(c2cccc(Cl)c2NC(=O)N2CCC(C)(c3noc(C4CCC4)n3)CC2)CC1` [Example 78, N-{2-chloro-6-[4-(propan-2-yl)piperazin-1-yl]phenyl}-4-(5-cyclobutyl-1,2,4-oxadiazol-3-yl)-4-methylpiperidine-1-carboxamide] was tested. Which “Agonist Activity (%)” value did it give?
The value was 170%.

How did the “Agonist Activity (%)” value turn out when `Cc1ccc(C2CCN(C(=O)Nc3c(F)cccc3N3C4CCC3CN(C(C)C)C4)CC2)cc1` [Example 161, N-{2-Fluoro-6-[3-(propan-2-yl)-3,8-diazabicyclo[3.2.1]octan-8-yl]phenyl}-4-(4-methylphenyl)piperidine-1-carboxamide] was run?
Its value is 90%.

`COc1cccc(N2CCN(C(C)C)CC2)c1NC(=O)N1CCC(C)(c2noc(C(C)C)n2)CC1` [Example 21, N-{2-methoxy-6-[4-(propan-2-yl)piperazin-1-yl]phenyl}-4-methyl-4-[5-(propan-2-yl)-1,2,4-oxadiazol-3-yl]piperidine-1-carboxamide] was tested. Which “Agonist Activity (%)” value did it give?
The value was 156%.

`CC(C)N1CCN(c2ccccc2NC(=O)N2CCC(C#N)(c3ccccc3)CC2)CC1.Cl` [Example 6, 4-cyano-4-phenyl-N-{2-[4-(propan-2-yl)piperazin-1-yl]phenyl}piperidine-1-carboxamide] was tested. Which “Agonist Activity (%)” value did it give?
Its value is 151%.

For `Cc1ccc(C2CCN(C(=S)Nc3c(F)cccc3N3CCN(C(C)C)CC3)CC2)cc1` [Example 64, N-{2-fluoro-6-[4-(propan-2-yl)piperazin-1-yl]phenyl}-4-(4-methylphenyl)piperidine-1-carbothioamide], which “Agonist Activity (%)” value is on record?
The value was 140%.

`CCN1CCCN(c2ccccc2NC(=O)N2CCC(C)(c3noc(C4CC4)n3)CC2)CC1` [Example 156, 4-(5-cyclopropyl-1,2,4-oxadiazol-3-yl)-N-[2-(4-ethyl-1,4-diazepan-1-yl)phenyl]-4-methylpiperidine-1-carboxamide] was tested. Which “Agonist Activity (%)” value did it give?
The value was 38%.

How did the “Agonist Activity (%)” value turn out when `Cc1ccc(C2CCN(C(=O)Nc3c(Cl)cccc3N3CCN(C(C)C)CC3)CC2)cc1` [Example 35, N-{2-chloro-6-[4-(propan-2-yl)piperazin-1-yl]phenyl}-4-(4-methylphenyl)piperidine-1-carboxamide] was run?
The value was 163%.

With `CCc1nc(C2(C)CCN(C(=O)Nc3c(Cl)cccc3N3CCN(C(C)C)CC3)CC2)no1` [Example 83, N-{2-chloro-6-[4-(propan-2-yl)piperazin-1-yl]phenyl}-4-(5-ethyl-1,2,4-oxadiazol-3-yl)-4-methylpiperidine-1-carboxamide] as the compound, how does the “Agonist Activity (%)” value read?
The value was 146%.

With `Cc1ccc(C2CCN(C(=O)Nc3c(F)cccc3N3CC4CCC(C3)N4C(C)C)CC2)cc1` [Example 154, N-{2-fluoro-6-[8-(propan-2-yl)-3,8-diazabicyclo[3.2.1]octan-3-yl]phenyl}-4-(4-methylphenyl)piperidine-1-carboxamide] as the compound, how does the “Agonist Activity (%)” value read?
The value was 40%.

With `CC(C)N1CCN(c2cccc(F)c2NC(=O)N2CCC(C)(c3cc(C4CC4)on3)CC2)CC1` [Example 54, 4-(5-cyclopropyl-1,2-oxazol-3-yl)-N-{2-fluoro-6-[4-(propan-2-yl)piperazin-1-yl]phenyl}-4-methylpiperidine-1-carboxamide] as the compound, how does the “Agonist Activity (%)” value read?
The value was 140%.

How did the “Agonist Activity (%)” value turn out when `CC(C)N1CCN(c2cccc(Cl)c2NC(=O)N2CCC(C)(c3noc([C@@H]4C[C@@H]4C)n3)CC2)CC1` [Example 118, N-{2-chloro-6-[4-(propan-2-yl)piperazin-1-yl]phenyl}-4-methyl-4-{5-[(1R,2S)-2-methylcyclopropyl]-1,2,4-oxadiazol-3-yl}piperidine-1-carboxamide] was run?
Its value is 149%.

`CCN1CCN(c2ccccc2NC(=O)N2CCC(c3ccc(C)cc3)CC2)CC1` [Example 122, N-[2-(4-ethylpiperazin-1-yl)phenyl]-4-(4-methylphenyl)piperidine-1-carboxamide] was tested. Which “Agonist Activity (%)” value did it give?
The value was 122%.

Which “Agonist Activity (%)” value does the source give for `CCc1nc(C2(F)CCN(C(=O)Nc3c(Cl)cccc3N3CCN(C(C)C)CC3)CC2)no1` [Example 95, N-{2-chloro-6-[4-(propan-2-yl)piperazin-1-yl]phenyl}-4-(5-ethyl-1,2,4-oxadiazol-3-yl)-4-fluoropiperidine-1-carboxamide] here?
Its value is 178%.

How did the “Agonist Activity (%)” value turn out when `CC1(c2noc(C3CC3)n2)CCN(C(=O)Nc2c(Cl)cccc2C2CCN(C3COC3)CC2)CC1` [Example 146, N-{2-chloro-6-[1-(oxetan-3-yl)piperidin-4-yl]phenyl}-4-(5-cyclopropyl-1,2,4-oxadiazol-3-yl)-4-methylpiperidine-1-carboxamide] was run?
Its value is 104%.

How did the “Agonist Activity (%)” value turn out when `CC(C)N1CC=C(c2cccc(F)c2NC(=O)N2CCC(C)(c3cc(C4CC4)on3)CC2)CC1` [Example 55, 4-(5-cyclopropyl-1,2-oxazol-3-yl)-N-{2-fluoro-6-[1-(propan-2-yl)-1,2,3,6-tetrahydropyridin-4-yl]phenyl}-4-methylpiperidine-1-carboxamide] was run?
The value was 154%.

Which “Agonist Activity (%)” value does the source give for `CC(C)N1CC=C(c2cccc(Cl)c2NC(=O)N2CCC(C)(C#N)CC2)CC1` [Example 158, N-{2-chloro-6-[1-(propan-2-yl)-1,2,3,6-tetrahydropyridin-4-yl]phenyl}-4-cyano-4-methylpiperidine-1-carboxamide] here?
The value was 133%.

`CC(C)N1CCN(c2ccccc2NC(=O)N2CCC(C)(c3nc(-c4ccccc4)no3)CC2)CC1` [Example 12, 4-methyl-4-(3-phenyl-1,2,4-oxadiazol-5-yl)-N-{2-[4-(propan-2-yl)piperazin-1-yl]phenyl}piperidine-1-carboxamide] was tested. Which “Agonist Activity (%)” value did it give?
Its value is 123%.

`COc1cccc(N2CCN(C(C)C)CC2)c1NC(=O)N1CCC(c2ccc(OC(F)(F)F)cc2)CC1` [Example 16, N-{2-methoxy-6-[4-(propan-2-yl)piperazin-1-yl]phenyl}-4-[4-(trifluoromethoxy)phenyl]piperidine-1-carboxamide] was tested. Which “Agonist Activity (%)” value did it give?
The value was 82%.
